What was measured:
Experiment in all cases: relative viability (nuclei count vs DMSO), 5 days (fraction); higher = more cells survive
ALW-II-49-7 + Pemetrexed = compound: Cc1ccc(C(=O)Nc2cccc(C(F)(F)F)c2)cc1Nc1cncc(C(N)=O)c1 [ALW-II-49-7] + Nc1nc2[nH]cc(CCc3ccc(C(=O)N[C@@H](CCC(=O)O)C(=O)O)cc3)c2c(=O)[nH]1 [Pemetrexed] (partner 0.2 µM)
How it was run: (§1)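 Relative viability equals treated-well nuclei counts divided by vehicle-well nuclei counts. Counts came from 4× images of lung cancer cell lines grown in 1536-well plates for 5 days after pin-tool dosing on the day after seeding. Dosing used one drug alone or a fixed anchor-drug dose plus five library-drug doses (not always all listed) in √10 steps, and values are medians of duplicate plates.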

XMD13-2 + Vorinostat = compound: C1CC1C(=O)NC2=NNC3=C2C=CC(=C3)C4=CC(=CC=C4)C(=O)NC5CC5 [XMD13-2] + O=C(CCCCCCC(=O)Nc1ccccc1)NO [Vorinostat] (partner 1 µM)
How it was run: as §1

ALW-II-49-7 + Luminespib = compound: Cc1ccc(C(=O)Nc2cccc(C(F)(F)F)c2)cc1Nc1cncc(C(N)=O)c1 [ALW-II-49-7] + CCNC(=O)c1noc(-c2cc(C(C)C)c(O)cc2O)c1-c1ccc(CN2CCOCC2)cc1 [Luminespib] (partner 0.01 µM)
How it was run: as §1

XMD13-2 + Dasatinib = compound: C1CC1C(=O)NC2=NNC3=C2C=CC(=C3)C4=CC(=CC=C4)C(=O)NC5CC5 [XMD13-2] + Cc1nc(Nc2ncc(C(=O)Nc3c(C)cccc3Cl)s2)cc(N2CCN(CCO)CC2)n1 [Dasatinib] (partner 0.075 µM)
How it was run: as §1

Cell Line | relative viability (ALW-II-49-7 + Pemetrexed; first compound 0.08 µM) | relative viability (ALW-II-49-7 + Pemetrexed; first compound 0.253 µM) | relative viability (ALW-II-49-7 + Pemetrexed; first compound 0.8 µM) | relative viability (ALW-II-49-7 + Pemetrexed; first compound 2.53 µM) | relative viability (ALW-II-49-7 + Pemetrexed; first compound 8 µM) | relative viability (XMD13-2 + Vorinostat; first compound 0.05 µM) | relative viability (XMD13-2 + Vorinostat; first compound 0.1581 µM) | relative viability (XMD13-2 + Vorinostat; first compound 0.5 µM) | relative viability (XMD13-2 + Vorinostat; first compound 1.581 µM) | relative viability (XMD13-2 + Vorinostat; first compound 5 µM) | relative viability (ALW-II-49-7 + Luminespib; first compound 0.08 µM) | relative viability (ALW-II-49-7 + Luminespib; first compound 0.253 µM) | relative viability (ALW-II-49-7 + Luminespib; first compound 0.8 µM) | relative viability (ALW-II-49-7 + Luminespib; first compound 2.53 µM) | relative viability (ALW-II-49-7 + Luminespib; first compound 8 µM) | relative viability (XMD13-2 + Dasatinib; first compound 0.05 µM) | relative viability (XMD13-2 + Dasatinib; first compound 0.1581 µM) | relative viability (XMD13-2 + Dasatinib; first compound 0.5 µM) | relative viability (XMD13-2 + Dasatinib; first compound 1.581 µM) | relative viability (XMD13-2 + Dasatinib; first compound 5 µM)
NCI-H2170 | 0.283 | 0.275 | 0.244 | 0.302 | 0.285 | 0.904 | 0.753 | 0.855 | 0.794 | 0.809 | 0.73 | 0.372 | 0.418 | 0.826 | 0.784 | 0.791 | 0.518 | 0.601 | 0.55 | 0.541
NCI-H2228 | 0.323 | 0.356 | 0.356 | 0.289 | 0.134 | 0.642 | 0.573 | 0.507 | 0.76 | 0.752 | 0.255 | 0.14 | 0.16 | 0.145 | 0.215 | 0.753 | 0.586 | 0.59 | 0.384 | 0.532
NCI-H2342 | 0.681 | 0.856 | 0.771 | 0.791 | 0.744 | 0.741 | 0.736 | 0.831 | 0.687 | 0.773 | 0.641 | 0.705 | 0.676 | 0.751 | 0.775 | 0.334 | 0.357 | 0.334 | 0.313 | 0.349
NCI-H2347 | 0.438 | 0.441 | 0.417 | 0.509 | 0.377 | 0.565 | 0.619 | 0.765 | 0.562 | 0.661 | 0.241 | 0.483 | 0.363 | 0.324 | 0.512 | 0.638 | 0.292 | 0.284 | 0.298 | 0.304

— the supplement of paper PMC10307832
